From US9957271B2, “Substituted bicyclic aza-heterocycles and analogues as sirtuin modulators” (GlaxoSmithKline, LLC, priority 2012, dated 2018)
Where two headings read alike, the source gives them in different places.

Target: T1, SIRT1 (Homo sapiens, UniProt Q96EB6)
T1 sequence (Q96EB6 1-747): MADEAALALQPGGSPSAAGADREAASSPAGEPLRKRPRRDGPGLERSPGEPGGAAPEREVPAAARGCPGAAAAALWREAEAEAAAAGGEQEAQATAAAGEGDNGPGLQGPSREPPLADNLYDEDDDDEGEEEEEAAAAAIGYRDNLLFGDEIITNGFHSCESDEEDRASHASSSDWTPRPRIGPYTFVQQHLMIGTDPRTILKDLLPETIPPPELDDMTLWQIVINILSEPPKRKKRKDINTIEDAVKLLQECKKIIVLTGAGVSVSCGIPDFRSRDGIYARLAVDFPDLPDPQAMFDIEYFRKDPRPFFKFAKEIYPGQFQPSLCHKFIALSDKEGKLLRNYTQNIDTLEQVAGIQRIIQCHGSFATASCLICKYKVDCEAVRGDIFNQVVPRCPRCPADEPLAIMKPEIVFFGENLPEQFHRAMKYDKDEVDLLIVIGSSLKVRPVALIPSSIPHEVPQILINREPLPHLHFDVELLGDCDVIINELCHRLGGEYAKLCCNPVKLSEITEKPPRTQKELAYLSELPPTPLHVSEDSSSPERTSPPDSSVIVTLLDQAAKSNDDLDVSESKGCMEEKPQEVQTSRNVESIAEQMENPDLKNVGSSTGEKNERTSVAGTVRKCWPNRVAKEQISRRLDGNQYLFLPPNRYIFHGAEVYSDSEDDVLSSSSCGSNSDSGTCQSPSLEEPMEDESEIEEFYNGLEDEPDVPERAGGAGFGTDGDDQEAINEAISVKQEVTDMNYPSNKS
Assay: TAMRA based mass spectrometry assay of SIRT1 activity
Assay type: biochemical
Conditions: for Emax: read-out: TAMRA % Fold Act
Description: Mass spectrometry based assays were used to identify modulators of SIRT1 activity. The TAMRA based assay utilized a peptide having 20 amino acid residues as follows: Ac-EE-K(biotin)-[…](Ac)NleSTEG-K(5TMR)-EE-NH2 (SEQ ID NO: 1), wherein K(Ac) is an acetylated lysine residue and Nle is a norleucine. The peptide was labeled with the fluorophore 5TMR (excitation 540 nm/emission 580 nm) at the C-terminus. The sequence of the peptide substrate was based on p53 with several modifications. In addition, the methionine residue naturally present in the sequence was replaced with the norleucine because the methionine may be susceptible to oxidation during synthesis and purification. The Trp based assay utilized a peptide having an amino acid residues as follows: Ac-R-H-K-K(Ac)-W-NH2 (SEQ ID NO: 2).
The TAMRA based mass spectrometry assay was conducted as follows: 0.5 μM peptide substrate and 120 μM βNAD^+ was incubated with 10 nM SIRT1 for 25 minutes at 25° C. in a reaction buffer (50 mM Tris-acetate pH 8, 137 mM NaCl, 2.7 mM KCl, 1 mM MgCl2, 5 mM DTT, 0.05% BSA). The SIRT1 protein was obtained by cloning the SirT1 gene into a T7-promoter containing vector, which was then transformed and expressed in BL21(DE3) bacterial cells. Test compound was added at varying concentrations to this reaction mixture and the resulting reactions were monitored. After the 25 minute incubation with SIRT1, 10 μL of 10% formic acid was added to stop the reaction. The resulting reactions were sealed and frozen for later mass spec analysis. Determination of the amount of deacetylated substrate peptide formed (or, alternatively, the amount of O-acetyl-ADP-ribose (OAADPR) generated) by the sirtuin-mediated NAD-dependent deacetylation reaction allowed for the precise measurement of relative SIRT1 activity in the presence of varying concentrations of the test compound versus control reactions lacking the test compound.
A control for inhibition of sirtuin activity was conducted by adding 1 μL of 500 mM nicotinamide as a negative control at the start of the reaction (e.g., permits determination of maximum sirtuin inhibition). A control for activation of sirtuin activity was conducted using 10 nM of sirtuin protein, with 1 μL of DMSO in place of compound, to determine the amount of deacetylation of the substrate at a given time point within the linear range of the assay. This time point was the same as that used for test compounds and, within the linear range, the endpoint represents a change in velocity.
For the above assay, SIRT1 protein was expressed and purified as follows. The SirT1 gene was cloned into a T7-promoter containing vector and transformed into BL21(DE3). The protein was expressed by induction with 1 mM IPTG as an N-terminal His-tag fusion protein at 18° C. overnight and harvested at 30,000×g. Cells were lysed with lysozyme in lysis buffer (50 mM Tris-HCl, 2 mM Tris[2-carboxyethyl]phosphine (TCEP), 10 μM ZnCl2, 200 mM NaCl) and further treated with sonication for […] for complete lysis. The protein was purified over a Ni-NTA column (Amersham) and fractions containing pure protein were pooled, concentrated and run over a sizing column (Sephadex S200 26/60 global). The peak containing soluble protein was collected and run on an Ion-exchange column (MonoQ). Gradient elution (200 mM-500 mM NaCl) yielded pure protein. This protein was concentrated and dialyzed against dialysis buffer (20 mM Tris-HCl, 2 mM TCEP) overnight. The protein was aliquoted and frozen at −80° C. until further use.

[1] = concentration of test compound giving 150% activation of SIRT1, TAMRA peptide substrate
[2] = percent maximum fold activation of SIRT1, TAMRA peptide substrate

Row | TAMRA EC1.5 (μM) [1] | Emax [2] [%] | TAMRA EC1.5 (μM) (TAMRA assay, concentration giving 150% activation of SIRT1) | Emax (TAMRA assay, percent maximum fold activation) [%] | SMILES
1 | A (EC1.5<1 μM) | ≥ 350 | – | – | O=C(Nc1cnc2ccc(-c3ccccc3C(F)(F)F)nn12)c1cccc(N2CCC2)n1 [Compound 144]
2 | A (EC1.5<1 μM) | ≥ 350 | – | – | O=C(Nc1cnc2ccc(-c3ccccc3C(F)(F)F)nn12)c1cccc(CN2CCCC2)n1 [Compound 145]
3 | B (EC1.5 1-25 μM) | < 350 | – | – | O=C(Nc1cnc2ccc(-c3ccccc3C(F)(F)F)nn12)c1ccc(CN2CCOCC2)nc1 [Compound 147]
4 | C (EC1.5>25 μM) | < 350 | – | – | O=C(Nc1cnc2ccc(-c3ccccc3C(F)(F)F)nn12)c1ccnc(CN2CCOCC2)c1 [Compound 148]
5 | A (EC1.5<1 μM) | ≥ 350 | – | – | O=C(Nc1ncc(N2CCOCC2)s1)c1cnc2ccc(-c3ccccc3C(F)(F)F)nn12 [Compound 151]
6 | B (EC1.5 1-25 μM) | ≥ 350 | – | – | Cn1cc(NC(=O)c2cnc3ccc(-c4ccccc4C(F)(F)F)nn23)cn1 [Compound 153]
7 | B (EC1.5 1-25 μM) | ≥ 350 | – | – | COCCn1cc(NC(=O)c2cnc3ccc(-c4ccccc4C(F)(F)F)nn23)cn1 [Compound 154]
8 | B (EC1.5 1-25 μM) | < 350 | – | – | COCCn1cc(NC(=O)c2cnc3ccc(-c4ccccc4C(F)(F)F)nn23)ccc1=O [Compound 156]
9 | B (EC1.5 1-25 μM) | ≥ 350 | – | – | O=C(Nc1cccc(CN2CCOCC2)n1)c1cnc2ccc(-c3c(F)cccc3Cl)nn12 [Compound 160]
10 | A (EC1.5<1 μM) | ≥ 350 | – | – | COc1cc(C)nc(NC(=O)c2cnc3ccc(-c4ccccc4C(F)(F)F)nn23)n1 [Compound 174]
11 | A (EC1.5<1 μM) | < 350 | – | – | O=C(Nc1cc(N2CCOCC2)ccn1)c1cnc2ccc(-c3ccccc3C(F)(F)F)nn12 [Compound 176]
12 | B (EC1.5 1-25 μM) | ≥ 350 | – | – | O=C(Nc1cccc(CN2CCOCC2)n1)c1cnc2ccc(-c3cccc(F)c3Cl)nn12 [Compound 180]
13 | A (EC1.5<1 μM) | ≥ 350 | – | – | Cc1cc(-c2ccccc2C(F)(F)F)nn2c(C(=O)Nc3cccc(CN4CCOCC4)n3)cnc12 [Compound 195]
14 | A (EC1.5<1 μM) | ≥ 350 | – | – | COc1cc(NC(=O)c2cnc3ccc(-c4ccccc4C(F)(F)F)nn23)nc(OC)n1 [Compound 196]
15 | – | – | A (EC1.5<1 μM) | ≥ 350 | O=C(Nc1ccc(N2CCOCC2)cn1)c1cnc2ccc(-c3ccccc3C(F)(F)F)nn12 [Compound 199]

Continued, compound first:

Row | SMILES | TAMRA EC1.5 (μM) [1] | Emax [2] [%] | TAMRA EC1.5 (μM) (TAMRA assay, concentration giving 150% activation of SIRT1) | Emax (TAMRA assay, percent maximum fold activation) [%]
16 | O=C(Nc1ccncc1)c1cnc2ccc(-c3ccccc3F)nn12 [Compound 136] | B (EC1.5 1-25 μM) | < 350 | – | –
17 | O=C(Nc1ccccn1)c1cnc2ccc(-c3ccccc3F)nn12 [Compound 137] | B (EC1.5 1-25 μM) | < 350 | – | –
18 | O=C(Nc1cccnc1)c1cnc2ccc(-c3ccccc3F)nn12 [Compound 138] | B (EC1.5 1-25 μM) | < 350 | – | –
19 | O=C(Nc1cnccn1)c1cnc2ccc(-c3ccccc3F)nn12 [Compound 139] | B (EC1.5 1-25 μM) | < 350 | – | –
20 | O=C(Nc1ccccn1)c1cnc2ccc(-c3cccc(Cl)c3F)nn12 [Compound 142] | B (EC1.5 1-25 μM) | < 350 | – | –
21 | O=C(Nc1cnccn1)c1cnc2ccc(-c3cccc(Cl)c3F)nn12 [Compound 157] | B (EC1.5 1-25 μM) | < 350 | – | –
22 | O=C(Nc1cccc(N2CCOCC2)n1)c1cnc2ccc(-c3cccc(Cl)c3F)nn12 [Compound 158] | A (EC1.5<1 μM) | ≥ 350 | – | –
23 | O=C(Nc1ccccn1)c1cnc2ccc(-c3c(F)cccc3Cl)nn12 [Compound 162] | B (EC1.5 1-25 μM) | < 350 | – | –
24 | O=C(Nc1cccnc1)c1cnc2ccc(-c3c(F)cccc3Cl)nn12 [Compound 163] | C (EC1.5>25 μM) | < 350 | – | –
25 | O=C(Nc1ccnc(N2CCC2)c1)c1cnc2ccc(-c3c(F)cccc3Cl)nn12 [Compound 165] | B (EC1.5 1-25 μM) | ≥ 350 | – | –
26 | O=C(Nc1ccncc1)c1cnc2ccc(-c3c(F)cccc3F)nn12 [Compound 166] | C (EC1.5>25 μM) | < 350 | – | –
27 | O=C(Nc1cccc(N2CCOCC2)n1)c1cnc2ccc(-c3c(F)cccc3F)nn12 [Compound 168] | A (EC1.5<1 μM) | ≥ 350 | – | –
28 | O=C(Nc1cccnc1)c1cnc2ccc(-c3c(F)cccc3F)nn12 [Compound 169] | C (EC1.5>25 μM) | < 350 | – | –
29 | O=C(Nc1cnccn1)c1cnc2ccc(-c3c(F)cccc3F)nn12 [Compound 171] | C (EC1.5>25 μM) | < 350 | – | –
30 | O=C(Nc1cccc(N2CCOCC2)n1)c1cnc2ccc(-c3cccc(F)c3Cl)nn12 [Compound 178] | A (EC1.5<1 μM) | < 350 | – | –
31 | O=C(Nc1ccnc(N2CCC2)c1)c1cnc2ccc(-c3cccc(F)c3Cl)nn12 [Compound 179] | A (EC1.5<1 μM) | < 350 | – | –
32 | O=C(Nc1ccncc1)c1cnc2ccc(-c3cccc(F)c3Cl)nn12 [Compound 181] | B (EC1.5 1-25 μM) | < 350 | – | –
33 | O=C(Nc1cnccn1)c1cnc2ccc(-c3cccc(F)c3Cl)nn12 [Compound 184] | B (EC1.5 1-25 μM) | < 350 | – | –
34 | CS(=O)(=O)c1ccccc1-c1ccc2ncc(C(=O)Nc3cccc(N4CCOCC4)n3)n2n1 [Compound 185] | B (EC1.5 1-25 μM) | < 350 | – | –
35 | CS(=O)(=O)c1ccccc1-c1ccc2ncc(C(=O)Nc3ccncc3)n2n1 [Compound 187] | C (EC1.5>25 μM) | < 350 | – | –
36 | CS(=O)(=O)c1ccccc1-c1ccc2ncc(C(=O)Nc3ccccn3)n2n1 [Compound 188] | C (EC1.5>25 μM) | < 350 | – | –
37 | N#Cc1ccccc1-c1ccc2ncc(C(=O)Nc3cccc(N4CCOCC4)n3)n2n1 [Compound 191] | A (EC1.5<1 μM) | < 350 | – | –
38 | Cc1cc(-c2ccccc2C(F)(F)F)nn2c(C(=O)Nc3ccncc3)cnc12 [Compound 193, 8-methyl-N-(pyridin-4-yl)-6-(2-(trifluoromethyl)phenyl)imidazo[1,2-b]pyridazine-3-carboxamide] | A (EC1.5<1 μM) | ≥ 350 | – | –
39 | Cc1cc(-c2ccccc2C(F)(F)F)nn2c(C(=O)Nc3ccccn3)cnc12 [Compound 194] | A (EC1.5<1 μM) | ≥ 350 | – | –
